Here are results for 3 compounds from patent US11958835B1, “6-(6-bromo-2-oxo-2H-chromen-3-yl)-4-(4-chlorophenyl)-2-alkoxynicotinonitrile as antimicrobial agents” (KING FAISAL UNIVERSITY, priority 2023, dated 2024).

Assay type in all cases: cell-based
One test has as its system Bacillus cereus. Put plainly: agar plate disc-diffusion, antibacterial, Bacillus cereus. The settings on record: DMSO control zone subtracted; for inhibition zone, Bacillus Cereus, A: A = concentration of comp. = 10,000 μL; for inhibition zone, Bacillus Cereus, B: B = concentration of comp. = 30.000 μL; for inhibition zone, Bacillus Cereus, C: C = concentration of comp. = 50,000 μL. Here is the method: (§1) The agar plate disc-diffusion method was applied. Sterilized filter papers (6 mm in diameter) were wetted with 10 μL of a solution of 6-(6-bromo-2-oxo-2H-chromen-3-yl)-4-(4-chlorophenyl)-2-ethoxynicotinonitrile (1) and 6-(6-bromo-2-oxo-2H-chromen-3-yl)-4-(4-chlorophenyl)-2-methoxynicotinonitrile (2) to be tested, containing […], and the discs were allowed to air dry. The discs were then placed onto the surface of agar plates (nutrient agar for bacteria and Sabouraud's dextrose agar for fungi) seeded with the test organism. Each plate contained 15 mL of the agar medium, previously seeded with 0.2 mL of the broth culture of each organism pregrown for 18 hours. The plates were incubated at 37° C. for 48 hours, and 72 hours for fungi. The inhibition zones were measured in millimeters. Discs impregnated with DMSO were used as a control, and its inhibition zone was subtracted from the tested compound actual inhibition zone.
(§2) Their antibacterial screened against gram positive bacteria namely Bacillus cereus and Staphylococcus aureus and gram-negative bacterial strains namely Pseudomonas aeruginosa and Escherichia coli, while their antifungal activity screened against Aspergillus flavus and Chrysosporium keratinophilum as shown in Tables 1 and 2 using ciprofloxacin as a reference.
In general terms: A growth-free zone around the sample is the usual read-out of agar diffusion tests.

For the next test, the system named is Staphylococcus aureus. Nature of the test: agar plate disc-diffusion, antibacterial, Staphylococcus aureus. The settings on record: DMSO control zone subtracted; for inhibition zone, Staphylococcus aureus, A: A = concentration of comp. = 10,000 μL; for inhibition zone, Staphylococcus aureus, B: B = concentration of comp. = 30.000 μL; for inhibition zone, Staphylococcus aureus, C: C = concentration of comp. = 50,000 μL. Here is the method:
as §1, §2

A further test has as its system Pseudomonas aeruginosa. Nature of the test: agar plate disc-diffusion, antibacterial, Pseudomonas aeruginosa. The settings on record: DMSO control zone subtracted; for inhibition zone, Pseudomonas aeruginosa, A: A = concentration of comp. = 10,000 μL; for inhibition zone, Pseudomonas aeruginosa, B: B = concentration of comp. = 30.000 μL; for inhibition zone, Pseudomonas aeruginosa, C: C = concentration of comp. = 50,000 μL. Here is the method: as §1, §2

In a further test the test system is Escherichia coli. Put plainly: agar plate disc-diffusion, antibacterial, Escherichia coli. The settings on record: DMSO control zone subtracted; for inhibition zone, Escherichia coli, A: A = concentration of comp. = 10,000 μL; for inhibition zone, Escherichia coli, B: B = concentration of comp. = 30.000 μL; for inhibition zone, Escherichia coli, C: C = concentration of comp. = 50,000 μL. The procedure:
as §1, §2

The next test has as its system Aspergillus flavus. Put plainly: agar plate disc-diffusion, antifungal, Aspergillus flavus. The settings on record: DMSO control zone subtracted; for inhibition zone, Aspergillus flavus, A: A = concentration of comp. = 10,000 μL; for inhibition zone, Aspergillus flavus, B: B = concentration of comp. = 30.000 μL; for inhibition zone, Aspergillus flavus, C: C = concentration of comp. = 50,000 μL. Here is the method: as §1, §2

In test [1] the test system is Chrysosporium keratinophilum. Put plainly: agar plate disc-diffusion, antifungal, Chrysosporium keratinophilum. Particulars: DMSO control zone subtracted; for inhibition zone, Chrysosporiam keratinophilum, A: A = concentration of comp. = 10,000 μL; for inhibition zone, Chrysosporiam keratinophilum, B: B = concentration of comp. = 30.000 μL; for inhibition zone, Chrysosporiam keratinophilum, C: C = concentration of comp. = 50,000 μL. The procedure: as §1, §2

For `COc1nc(-c2cc3cc(Br)ccc3oc2=O)cc(-c2ccc(Cl)cc2)c1C#N` [Compound 2, 6-(6-bromo-2-oxo-2H-chromen-3-yl)-4-(4-chlorophenyl)-2-methoxynicotinonitrile], in the test on Bacillus cereus, the “inhibition zone, Bacillus Cereus, A” value turned out to be 25 millimeters; the “inhibition zone, Bacillus Cereus, B” value was found to be 27 millimeters; the “inhibition zone, Bacillus Cereus, C” value was 35 millimeters. Moreover, in the test on Staphylococcus aureus, the “inhibition zone, Staphylococcus aureus, A” value amounted to 17 millimeters; the “inhibition zone, Staphylococcus aureus, B” value amounted to 23 millimeters; the “inhibition zone, Staphylococcus aureus, C” value turned out to be 29 millimeters. Besides, in the test with Pseudomonas aeruginosa, the “inhibition zone, Pseudomonas aeruginosa, A” value was determined as 25 millimeters; the “inhibition zone, Pseudomonas aeruginosa, B” value was determined as 31 millimeters; the “inhibition zone, Pseudomonas aeruginosa, C” value is recorded as 35 millimeters. In the test with Escherichia coli, the “inhibition zone, Escherichia coli, A” value is reported as 27 millimeters; the “inhibition zone, Escherichia coli, B” value was found to be 34 millimeters; the “inhibition zone, Escherichia coli, C” value is reported as 48 millimeters. In the test on Aspergillus flavus, the “inhibition zone, Aspergillus flavus, A” value is reported as 19 millimeters; the “inhibition zone, Aspergillus flavus, B” value came to 23 millimeters; the “inhibition zone, Aspergillus flavus, C” value is listed as 33 millimeters. For the same compound, in test [1], the “inhibition zone, Chrysosporiam keratinophilum, A” value is given as 25 millimeters; the “inhibition zone, Chrysosporiam keratinophilum, B” value is given as 29 millimeters; the “inhibition zone, Chrysosporiam keratinophilum, C” value turned out to be 40 millimeters.

Regarding `O=C(O)c1cn(C2CC2)c2cc(N3CCNCC3)c(F)cc2c1=O` [Cip., ciprofloxacin, reference compound], in the test with Bacillus cereus, the “inhibition zone, Bacillus Cereus, A” value came to 29 millimeters; the “inhibition zone, Bacillus Cereus, B” value is 30 millimeters; the “inhibition zone, Bacillus Cereus, C” value stood at 42 millimeters. For the same compound, in the test with Staphylococcus aureus, the “inhibition zone, Staphylococcus aureus, A” value is listed as 43 millimeters; the “inhibition zone, Staphylococcus aureus, B” value stood at 44 millimeters; the “inhibition zone, Staphylococcus aureus, C” value stood at 53 millimeters. Besides, in the test with Pseudomonas aeruginosa, the “inhibition zone, Pseudomonas aeruginosa, A” value was 29 millimeters; the “inhibition zone, Pseudomonas aeruginosa, B” value is on record as 30 millimeters; the “inhibition zone, Pseudomonas aeruginosa, C” value is given as 53 millimeters. In the test on Escherichia coli, the “inhibition zone, Escherichia coli, A” value came to 30 millimeters; the “inhibition zone, Escherichia coli, B” value turned out to be 39 millimeters; the “inhibition zone, Escherichia coli, C” value was 60 millimeters. Besides, in the test on Aspergillus flavus, the “inhibition zone, Aspergillus flavus, A” value stood at 29 millimeters; the “inhibition zone, Aspergillus flavus, B” value stood at 30 millimeters; the “inhibition zone, Aspergillus flavus, C” value turned out to be 42 millimeters. Also, in test [1], the “inhibition zone, Chrysosporiam keratinophilum, A” value came out at 29 millimeters; the “inhibition zone, Chrysosporiam keratinophilum, B” value is on record as 30 millimeters; the “inhibition zone, Chrysosporiam keratinophilum, C” value turned out to be 53 millimeters.

As for `CCOc1nc(-c2cc3cc(Br)ccc3oc2=O)cc(-c2ccc(Cl)cc2)c1C#N` [Compound 1, 6-(6-bromo-2-oxo-2H-chromen-3-yl)-4-(4-chlorophenyl)-2-ethoxynicotinonitrile], in the test on Bacillus cereus, the “inhibition zone, Bacillus Cereus, A” value stood at 15 millimeters; the “inhibition zone, Bacillus Cereus, B” value is 20 millimeters; the “inhibition zone, Bacillus Cereus, C” value is recorded as 29 millimeters. Further, in the test on Staphylococcus aureus, the “inhibition zone, Staphylococcus aureus, A” value worked out at 18 millimeters; the “inhibition zone, Staphylococcus aureus, B” value came to 22 millimeters; the “inhibition zone, Staphylococcus aureus, C” value is listed as 27 millimeters. Further, in the test with Pseudomonas aeruginosa, the “inhibition zone, Pseudomonas aeruginosa, A” value was found to be 21 millimeters; the “inhibition zone, Pseudomonas aeruginosa, B” value was determined as 26 millimeters; the “inhibition zone, Pseudomonas aeruginosa, C” value is listed as 37 millimeters. Moreover, in the test on Escherichia coli, the “inhibition zone, Escherichia coli, A” value is 27 millimeters; the “inhibition zone, Escherichia coli, B” value was determined as 37 millimeters; the “inhibition zone, Escherichia coli, C” value was determined as 45 millimeters. Besides, in the test on Aspergillus flavus, the “inhibition zone, Aspergillus flavus, A” value was found to be 20 millimeters; the “inhibition zone, Aspergillus flavus, B” value stood at 25 millimeters; the “inhibition zone, Aspergillus flavus, C” value is on record as 34 millimeters. In addition, in test [1], the “inhibition zone, Chrysosporiam keratinophilum, A” value turned out to be 24 millimeters; the “inhibition zone, Chrysosporiam keratinophilum, B” value came out at 27 millimeters; the “inhibition zone, Chrysosporiam keratinophilum, C” value was 39 millimeters.
